Source: PubChem BioAssay (NCI)
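Step 1: Grow cells in 96-well plates. Step 2: Expose to compound for 48 hours at 5 concentrations. Step 3: Interpolate endpoints linearly; if unreached, use highest concentration. GI50 is the concentration that inhibits growth by half. TGI is the concentration that stops growth completely.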

Assays:
Experiment in all cases: NCI-60 cell line screen, 48 h
786-0 renal = system: 786-0 renal
A498 renal = system: A498 renal
A549 NSCLC = system: A549 NSCLC
ACHN renal = system: ACHN renal
BT-549 breast = system: BT-549 breast
CAKI-1 renal = system: CAKI-1 renal
CCRF-CEM leukemia = system: CCRF-CEM leukemia
COLO 205 colon = system: COLO 205 colon
DU-145 prostate = system: DU-145 prostate
EKVX NSCLC = system: EKVX NSCLC
HCC-2998 colon = system: HCC-2998 colon
HCT-116 colon = system: HCT-116 colon
HCT-15 colon = system: HCT-15 colon
HL-60(TB) leukemia = system: HL-60(TB) leukemia
HOP-62 NSCLC = system: HOP-62 NSCLC
HOP-92 NSCLC = system: HOP-92 NSCLC
HS 578T breast = system: HS 578T breast
HT29 colon = system: HT29 colon
IGROV1 ovarian = system: IGROV1 ovarian
K-562 leukemia = system: K-562 leukemia
KM12 colon = system: KM12 colon
LOX IMVI melanoma = system: LOX IMVI melanoma
M14 melanoma = system: M14 melanoma
MALME-3M melanoma = system: MALME-3M melanoma
MCF7 breast = system: MCF7 breast
MDA-MB-231 breast = system: MDA-MB-231 breast
MDA-MB-435 = system: MDA-MB-435
MOLT-4 leukemia = system: MOLT-4 leukemia
NCI-H226 lung = system: NCI-H226 lung
NCI-H23 lung = system: NCI-H23 lung
NCI-H460 lung = system: NCI-H460 lung
NCI-H522 lung = system: NCI-H522 lung
NCI/ADR-RES ovarian = system: NCI/ADR-RES ovarian
OVCAR-3 ovarian = system: OVCAR-3 ovarian
OVCAR-4 ovarian = system: OVCAR-4 ovarian
OVCAR-5 ovarian = system: OVCAR-5 ovarian
OVCAR-8 ovarian = system: OVCAR-8 ovarian
PC-3 prostate = system: PC-3 prostate
RPMI-8226 leukemia = system: RPMI-8226 leukemia
RXF 393 renal = system: RXF 393 renal
SF-268 CNS = system: SF-268 CNS
SF-295 CNS = system: SF-295 CNS
SF-539 CNS = system: SF-539 CNS
SK-MEL-2 melanoma = system: SK-MEL-2 melanoma
SK-MEL-28 melanoma = system: SK-MEL-28 melanoma
SK-MEL-5 melanoma = system: SK-MEL-5 melanoma
SK-OV-3 ovarian = system: SK-OV-3 ovarian
SN12C renal = system: SN12C renal
SNB-19 CNS = system: SNB-19 CNS
SNB-75 CNS = system: SNB-75 CNS
SR leukemia = system: SR leukemia
SW-620 colon = system: SW-620 colon
T-47D breast = system: T-47D breast
TK-10 renal = system: TK-10 renal
U251 CNS = system: U251 CNS
UACC-257 melanoma = system: UACC-257 melanoma
UACC-62 melanoma = system: UACC-62 melanoma
UO-31 renal = system: UO-31 renal

With `CN(C)CCCN=c1cc2c(=O)n(CCCN(C)C)c(=O)c3c(NCCCN(C)C)cc4c(O)n(CCCN(C)C)c(=O)c1c4c3-2` the GI50 (786-0 renal) was 6.36 µM, the TGI (786-0 renal) was 87.4 µM and the GI50 (A498 renal) was 1.15 µM. It also gave a TGI (A498 renal) of 3.92 µM, a GI50 (A549 NSCLC) of 0.525 µM and a TGI (A549 NSCLC) of 2.63 µM. For the same compound, the GI50 (ACHN renal) was 0.736 µM, the TGI (ACHN renal) was 12.4 µM and the GI50 (BT-549 breast) was 11.2 µM. The TGI (BT-549 breast) was 31.4 µM, the GI50 (CAKI-1 renal) was 6.21 µM and the TGI (CAKI-1 renal) was 29.4 µM. It also gave a GI50 (CCRF-CEM leukemia) of 5.84 µM, a TGI (CCRF-CEM leukemia) of 54.8 µM and a GI50 (COLO 205 colon) of 1.03 µM. The TGI (COLO 205 colon) was 2.62 µM, the GI50 (DU-145 prostate) was 2.5 µM and the TGI (DU-145 prostate) was 9.51 µM. For the same compound, the GI50 (EKVX NSCLC) was 3.06 µM, the TGI (EKVX NSCLC) was 21.3 µM and the GI50 (HCC-2998 colon) was 5.68 µM. The TGI (HCC-2998 colon) was 22.9 µM, the GI50 (HCT-116 colon) was 0.582 µM and the TGI (HCT-116 colon) was 5.52 µM. It also gave a GI50 (HCT-15 colon) of 4.3 µM, a TGI (HCT-15 colon) of 46.4 µM and a GI50 (HL-60(TB) leukemia) of 15.1 µM. The TGI (HL-60(TB) leukemia) was 60.5 µM, the GI50 (HOP-62 NSCLC) was 0.657 µM and the TGI (HOP-62 NSCLC) was 5.19 µM. The GI50 (HOP-92 NSCLC) was 1.81 µM, the TGI (HOP-92 NSCLC) was 14.2 µM and the GI50 (HS 578T breast) was 1.13 µM. It also gave a TGI (HS 578T breast) of 5.03 µM, a GI50 (HT29 colon) of 0.573 µM and a TGI (HT29 colon) of 3.58 µM. It also gave a GI50 (IGROV1 ovarian) of 2.34 µM, a TGI (IGROV1 ovarian) of 8.29 µM and a GI50 (K-562 leukemia) of 2.13 µM. The TGI (K-562 leukemia) was over 100 µM, the GI50 (KM12 colon) was 2.36 µM and the TGI (KM12 colon) was 16.4 µM. It also gave a GI50 (LOX IMVI melanoma) of 2.01 µM, a TGI (LOX IMVI melanoma) of 8.36 µM and a GI50 (M14 melanoma) of 5.87 µM. For the same compound, the TGI (M14 melanoma) was 19.7 µM, the GI50 (MALME-3M melanoma) was 1.27 µM and the TGI (MALME-3M melanoma) was 5.59 µM. It also gave a GI50 (MCF7 breast) of 0.409 µM, a TGI (MCF7 breast) of 9.4 µM and a GI50 (MDA-MB-231 breast) of 3.02 µM. It also gave a TGI (MDA-MB-231 breast) of 16.3 µM, a GI50 (MDA-MB-435) of 3.41 µM and a TGI (MDA-MB-435) of 14.9 µM. It also gave a GI50 (MOLT-4 leukemia) of 7.11 µM, a TGI (MOLT-4 leukemia) of 98.8 µM and a GI50 (NCI-H226 lung) of 0.258 µM. It also gave a TGI (NCI-H226 lung) of 4.12 µM, a GI50 (NCI-H23 lung) of 5.39 µM and a TGI (NCI-H23 lung) of 25.5 µM. It also gave a GI50 (NCI-H460 lung) of 0.395 µM, a TGI (NCI-H460 lung) of 1.86 µM and a GI50 (NCI-H522 lung) of 0.781 µM. It also gave a TGI (NCI-H522 lung) of 2.76 µM, a GI50 (NCI/ADR-RES ovarian) of 12.3 µM and a TGI (NCI/ADR-RES ovarian) of over 100 µM. It also gave a GI50 (OVCAR-3 ovarian) of 2.26 µM, a TGI (OVCAR-3 ovarian) of 7.88 µM and a GI50 (OVCAR-4 ovarian) of 1.83 µM. The TGI (OVCAR-4 ovarian) was 7.9 µM, the GI50 (OVCAR-5 ovarian) was 1.12 µM and the TGI (OVCAR-5 ovarian) was 4.09 µM. The GI50 (OVCAR-8 ovarian) was 1.03 µM, the TGI (OVCAR-8 ovarian) was 11.4 µM and the GI50 (PC-3 prostate) was 2.79 µM. The TGI (PC-3 prostate) was 34.1 µM, the GI50 (RPMI-8226 leukemia) was 4.18 µM and the TGI (RPMI-8226 leukemia) was 46.1 µM. It also gave a GI50 (RXF 393 renal) of 1.77 µM, a TGI (RXF 393 renal) of 4.44 µM and a GI50 (SF-268 CNS) of 0.964 µM. The TGI (SF-268 CNS) was 9.33 µM, the GI50 (SF-295 CNS) was 1.1 µM and the TGI (SF-295 CNS) was 9 µM. For the same compound, the GI50 (SF-539 CNS) was 2.33 µM, the TGI (SF-539 CNS) was 11 µM and the GI50 (SK-MEL-2 melanoma) was 1.37 µM. It also gave a TGI (SK-MEL-2 melanoma) of 5.08 µM, a GI50 (SK-MEL-28 melanoma) of 1.96 µM and a TGI (SK-MEL-28 melanoma) of 4.79 µM. The GI50 (SK-MEL-5 melanoma) was 3.03 µM, the TGI (SK-MEL-5 melanoma) was 11.2 µM and the GI50 (SK-OV-3 ovarian) was 1.88 µM. For the same compound, the TGI (SK-OV-3 ovarian) was 6.93 µM, the GI50 (SN12C renal) was 1.73 µM and the TGI (SN12C renal) was 30.9 µM. It also gave a GI50 (SNB-19 CNS) of 1.51 µM, a TGI (SNB-19 CNS) of 19.7 µM and a GI50 (SNB-75 CNS) of 1.25 µM. For the same compound, the TGI (SNB-75 CNS) was 3.68 µM, the GI50 (SR leukemia) was 8.39 µM and the TGI (SR leukemia) was 56 µM. The GI50 (SW-620 colon) was 0.79 µM, the TGI (SW-620 colon) was 15.6 µM and the GI50 (T-47D breast) was 2.35 µM. For the same compound, the TGI (T-47D breast) was 16.9 µM, the GI50 (TK-10 renal) was 1.55 µM and the TGI (TK-10 renal) was 5.95 µM. For the same compound, the GI50 (U251 CNS) was 0.418 µM, the TGI (U251 CNS) was 11 µM and the GI50 (UACC-257 melanoma) was 2.19 µM. It also gave a TGI (UACC-257 melanoma) of 7.35 µM, a GI50 (UACC-62 melanoma) of 1.75 µM and a TGI (UACC-62 melanoma) of 4.86 µM. It also gave a GI50 (UO-31 renal) of 2.92 µM and a TGI (UO-31 renal) of 12.9 µM.
